Assay results: patent US9113629B2, “4-amino-6-(4-substituted-phenyl)-picolinates and 6-amino-2-(4-substituted-phenyl)-pyrimidine-4-carboxylates and their use as herbicides” (DOW AGROSCIENCES LLC, priority 2013, dated 2015)
Like-named read-outs stand apart in the source and are kept apart here.

Columns and labels:
[1] = test system: Key Grass and Sedge Weeds as well as Grass Crops; experiment: Post-emergent Test II herbicidal activity (Table 6); assay type: in vivo; conditions: for Visual Growth Reduction (%) 14 Days After Application, SORVU: SORVU: sorghum (Sorghum vulgare); for Visual Growth Reduction (%) 14 Days After Application, TRZSS: TRZSS (wheat); for pest or weed control at 70 g/ha / pest or weed control at 140 g/ha: post-emergence, 336 h; for pest or weed control at 70 g/ha: 70 g ai/ha; for pest or weed control at 140 g/ha: 140 g ai/ha
In short: (§1)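 Spray rates: a highest rate plus ½×, ¼×, ⅛×, 1/16×, all delivered at 187 L/ha to plants at the first–second true leaf stage. Readout is a visual percent injury score at 14 d, where 100 means complete kill.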

[2] = test system: Key Broadleaf Weed and Crop Species; experiment: Post-emergent Test II herbicidal activity (Table 5); assay type: in vivo; conditions: for Visual Growth Reduction (%) 14 Days After Application, ABUTH / Visual Growth Reduction (%) 14 Days After Application, AMARE / Visual Growth Reduction (%) 14 Days After Application, BRSNN / Visual Growth Reduction (%) 14 Days After Application, CHEAL / Visual Growth Reduction (%) 14 Days After Application, EPHHL / Visual Growth Reduction (%) 14 Days After Application, HELAN / Visual Growth Reduction (%) 14 Days After Application, VIOTR: post-emergent; for pest or weed control at 70 g/ha / pest or weed control at 140 g/ha: post-emergence, 336 h, 14 days after application; for pest or weed control at 70 g/ha: application rate 70 g ai/ha; for pest or weed control at 140 g/ha: application rate 140 g ai/ha
In short: as §1

[3] = CYPES: yellow nutsedge (Cyperus esculentus), read-out: Visual Growth Reduction (%) 14 Days After Application, CYPES
[4] = DIGSA: crabgrass (Digitaria sanguinalis), read-out: Visual Growth Reduction (%) 14 Days After Application, DIGSA
[5] = ECHCG: barnyardgrass (Echinochloa crus-galli), read-out: Visual Growth Reduction (%) 14 Days After Application, ECHCG
[6] = ORYSA: rice (Oryza sativa), crop, read-out: Visual Growth Reduction (%) 14 Days After Application, ORYSA
[7] = SETFA: giant foxtail (Setaria faberi), read-out: Visual Growth Reduction (%) 14 Days After Application, SETFA
[8] = SORVU: grain sorghum (Sorghum vulgare), read-out: Visual Growth Reduction (%) 14 Days After Application, SORVU
[9] = TRZSS (wheat, Triticum aestivum), crop, read-out: Visual Growth Reduction (%) 14 Days After Application, TRZSS
[10] = ZEAMX: maize, corn (Zea mays), crop, read-out: Visual Growth Reduction (%) 14 Days After Application, ZEAMX
[11] = ABUTH: velvetleaf (Abutilon theophrasti), read-out: Visual Growth Reduction (%) 14 Days After Application, ABUTH
[12] = AMARE: redroot pigweed (Amaranthus retroflexus), read-out: Visual Growth Reduction (%) 14 Days After Application, AMARE
[13] = BRSNN: oilseed-rape, canola (Brassica napus), read-out: Visual Growth Reduction (%) 14 Days After Application, BRSNN
[14] = CHEAL: lambsquarters (Chenopodium album), read-out: Visual Growth Reduction (%) 14 Days After Application, CHEAL
[15] = EPHHL: wild poinsettia (Euphorbia heterophylla), read-out: Visual Growth Reduction (%) 14 Days After Application, EPHHL
[16] = HELAN: sunflower (Helianthus annuus), read-out: Visual Growth Reduction (%) 14 Days After Application, HELAN
[17] = VIOTR: wild pansy (Viola tricolor), read-out: Visual Growth Reduction (%) 14 Days After Application, VIOTR

COC(=O)c1nc(-c2ccc(C(F)(F)F)c(F)c2)c(Cl)c(N)c1Cl [Compound 58]
Visual Growth Reduction (%) 14 Days After Application, CYPES ([1]; CYPES: yellow nutsedge (Cyperus esculentus), application rate 70 g ai/ha): A (95-100)
Visual Growth Reduction (%) 14 Days After Application, CYPES ([1]; CYPES: yellow nutsedge (Cyperus esculentus), application rate 140 g ai/ha): A (95-100)
Visual Growth Reduction (%) 14 Days After Application, DIGSA ([1]; DIGSA: crabgrass (Digitaria sanguinalis), application rate 70 g ai/ha): D (60-74)
Visual Growth Reduction (%) 14 Days After Application, DIGSA ([1]; DIGSA: crabgrass (Digitaria sanguinalis), application rate 140 g ai/ha): C (75-84)
Visual Growth Reduction (%) 14 Days After Application, ECHCG ([1]; ECHCG: barnyardgrass (Echinochloa crus-galli), application rate 70 g ai/ha): G (0-29)
Visual Growth Reduction (%) 14 Days After Application, ECHCG ([1]; ECHCG: barnyardgrass (Echinochloa crus-galli), application rate 140 g ai/ha): C (75-84)
Visual Growth Reduction (%) 14 Days After Application, ORYSA ([1]; ORYSA: rice (Oryza sativa), application rate 70 g ai/ha): G (0-29)
Visual Growth Reduction (%) 14 Days After Application, ORYSA ([1]; ORYSA: rice (Oryza sativa), application rate 140 g ai/ha): G (0-29)
Visual Growth Reduction (%) 14 Days After Application, SORVU ([1]; application rate 70 g ai/ha): E (45-59)
Visual Growth Reduction (%) 14 Days After Application, SORVU ([1]; application rate 140 g ai/ha): E (45-59)
Visual Growth Reduction (%) 14 Days After Application, TRZSS ([1]; application rate 70 g ai/ha): E (45-59)
Visual Growth Reduction (%) 14 Days After Application, TRZSS ([1]; application rate 140 g ai/ha): D (60-74)
Visual Growth Reduction (%) 14 Days After Application, ZEAMX ([1]; ZEAMX: maize, corn (Zea mays), application rate 70 g ai/ha): D (60-74)
Visual Growth Reduction (%) 14 Days After Application, ZEAMX ([1]; ZEAMX: maize, corn (Zea mays), application rate 140 g ai/ha): D (60-74)
Visual Growth Reduction (%) 14 Days After Application, ABUTH ([2]; ABUTH: velvetleaf (Abutilon theophrasti), 70 g ai/ha): B (85-94)
Visual Growth Reduction (%) 14 Days After Application, ABUTH ([2]; ABUTH: velvetleaf (Abutilon theophrasti), 140 g ai/ha): A (95-100)
Visual Growth Reduction (%) 14 Days After Application, AMARE ([2]; AMARE: redroot pigweed (Amaranthus retroflexus), 70 g ai/ha): B (85-94)
Visual Growth Reduction (%) 14 Days After Application, AMARE ([2]; AMARE: redroot pigweed (Amaranthus retroflexus), 140 g ai/ha): A (95-100)
Visual Growth Reduction (%) 14 Days After Application, BRSNN ([2]; BRSNN: oilseed-rape, canola (Brassica napus), 70 g ai/ha): D (60-74)
Visual Growth Reduction (%) 14 Days After Application, BRSNN ([2]; BRSNN: oilseed-rape, canola (Brassica napus), 140 g ai/ha): C (75-84)
Visual Growth Reduction (%) 14 Days After Application, CHEAL ([2]; CHEAL: lambsquarters (Chenopodium album), 70 g ai/ha): A (95-100)
Visual Growth Reduction (%) 14 Days After Application, CHEAL ([2]; CHEAL: lambsquarters (Chenopodium album), 140 g ai/ha): A (95-100)
Visual Growth Reduction (%) 14 Days After Application, EPHHL ([2]; EPHHL: wild poinsettia (Euphorbia heterophylla), 70 g ai/ha): G (0-29)
Visual Growth Reduction (%) 14 Days After Application, EPHHL ([2]; EPHHL: wild poinsettia (Euphorbia heterophylla), 140 g ai/ha): G (0-29)
Visual Growth Reduction (%) 14 Days After Application, HELAN ([2]; HELAN: sunflower (Helianthus annuus), 70 g ai/ha): A (95-100)
Visual Growth Reduction (%) 14 Days After Application, HELAN ([2]; HELAN: sunflower (Helianthus annuus), 140 g ai/ha): A (95-100)
Visual Growth Reduction (%) 14 Days After Application, VIOTR ([2]; VIOTR: wild pansy (Viola tricolor), 70 g ai/ha): G (0-29)
Visual Growth Reduction (%) 14 Days After Application, VIOTR ([2]; VIOTR: wild pansy (Viola tricolor), 140 g ai/ha): G (0-29)

COC(=O)c1nc(-c2cccc(F)c2F)c(F)c(N)c1Cl [Compound 199]
pest or weed control at 70 g/ha [1, 3]: 0 to 29%
pest or weed control at 140 g/ha [1, 3]: 0 to 29%
pest or weed control at 70 g/ha [1, 4]: 0 to 29%
pest or weed control at 140 g/ha [1, 4]: 0 to 29%
pest or weed control at 70 g/ha [1, 5]: 0 to 29%
pest or weed control at 140 g/ha [1, 5]: 0 to 29%
pest or weed control at 70 g/ha [1, 6]: 0 to 29%
pest or weed control at 140 g/ha [1, 6]: 0 to 29%
pest or weed control at 70 g/ha [1, 7]: 0 to 29%
pest or weed control at 140 g/ha [1, 7]: 0 to 29%
pest or weed control at 70 g/ha [1, 8]: 0 to 29%
pest or weed control at 140 g/ha [1, 8]: 0 to 29%
pest or weed control at 70 g/ha [1, 9]: 0 to 29%
pest or weed control at 140 g/ha [1, 9]: 0 to 29%
pest or weed control at 70 g/ha [1, 10]: 0 to 29%
pest or weed control at 140 g/ha [1, 10]: 0 to 29%
pest or weed control at 70 g/ha [2, 11]: 95 to 100%
pest or weed control at 140 g/ha [2, 11]: 95 to 100%
pest or weed control at 70 g/ha [2, 12]: 95 to 100%
pest or weed control at 140 g/ha [2, 12]: 95 to 100%
pest or weed control at 70 g/ha [2, 13]: 85 to 94%
pest or weed control at 140 g/ha [2, 13]: 95 to 100%
pest or weed control at 70 g/ha [2, 14]: 85 to 94%
pest or weed control at 140 g/ha [2, 14]: 95 to 100%
pest or weed control at 70 g/ha [2, 15]: 60 to 74%
pest or weed control at 140 g/ha [2, 15]: 85 to 94%
pest or weed control at 70 g/ha [2, 16]: 75 to 84%
pest or weed control at 140 g/ha [2, 16]: 95 to 100%
pest or weed control at 70 g/ha [2, 17]: 0 to 29%
pest or weed control at 140 g/ha [2, 17]: 30 to 44%
